Where two headings read alike, the source gives them in different places.
Legend:
[1] = target: T1, M1 muscarinic receptor (Homo sapiens, UniProt P11229); experiment: Functional mobilization of intracellular calcium (FLIPR) in M1-CHO cells; assay type: cell-based; settings: for Emax: read-out: M1 Efficacy
T1 construct: expressed in transfected cells; host or cells: CHO (M1-CHO)
T1 sequence (P11229 1-460): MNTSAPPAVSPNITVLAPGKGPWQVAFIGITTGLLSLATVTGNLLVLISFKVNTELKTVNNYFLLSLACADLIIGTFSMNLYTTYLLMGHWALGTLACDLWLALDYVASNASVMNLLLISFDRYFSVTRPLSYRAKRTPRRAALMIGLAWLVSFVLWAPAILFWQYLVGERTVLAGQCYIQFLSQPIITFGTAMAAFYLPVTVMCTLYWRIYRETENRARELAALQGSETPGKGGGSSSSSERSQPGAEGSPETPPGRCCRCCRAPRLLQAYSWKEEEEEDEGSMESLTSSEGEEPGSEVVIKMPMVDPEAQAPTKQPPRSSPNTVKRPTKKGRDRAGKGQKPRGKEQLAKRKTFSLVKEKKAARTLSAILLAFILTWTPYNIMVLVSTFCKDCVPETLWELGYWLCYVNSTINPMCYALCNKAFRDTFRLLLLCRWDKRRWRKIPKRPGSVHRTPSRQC
Summary of the method: (§1)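 Measured via Fluo-3 fluorescence on a FLIPR, CHO cells with either muscarinic subtype received compound in 0.5% DMSO. Antagonism was assessed after 15 min pre-incubation followed by carbachol at each subtype's EC80; agonism from compound addition alone.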

[2] = target: T2, M4 muscarinic receptor (Homo sapiens, UniProt P08173); experiment: Functional mobilization of intracellular calcium (FLIPR) in M4-CHO cells; assay type: cell-based; settings: for Emax: read-out: M4 Efficacy
T2 construct: expressed in transfected cells; host or cells: CHO (M4-CHO)
T2 sequence (P08173 1-479): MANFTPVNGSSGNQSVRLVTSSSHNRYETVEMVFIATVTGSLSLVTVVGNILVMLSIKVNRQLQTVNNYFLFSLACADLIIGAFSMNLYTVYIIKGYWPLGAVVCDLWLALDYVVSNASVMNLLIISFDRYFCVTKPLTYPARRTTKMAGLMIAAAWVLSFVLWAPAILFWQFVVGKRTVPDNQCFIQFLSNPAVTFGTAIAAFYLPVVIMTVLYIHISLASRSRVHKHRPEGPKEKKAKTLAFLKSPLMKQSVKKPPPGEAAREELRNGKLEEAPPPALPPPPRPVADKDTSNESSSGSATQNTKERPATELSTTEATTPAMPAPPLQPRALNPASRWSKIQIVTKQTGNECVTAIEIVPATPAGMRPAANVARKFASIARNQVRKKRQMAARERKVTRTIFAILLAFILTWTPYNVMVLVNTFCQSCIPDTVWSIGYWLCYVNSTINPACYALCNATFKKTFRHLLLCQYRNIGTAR
Summary of the method: as §1

[3] = M1 receptor, calcium mobilization
[4] = M4 receptor, calcium mobilization
[5] = M1-CHO cells, calcium mobilization (FLIPR)
[6] = M4-CHO cells, calcium mobilization (FLIPR)

| Structure (SMILES) | M1 Activity [1, 3] | Emax [1, 3] | M4 Activity [2, 4] | Emax [2, 4] | EC50 [1, 5] | Emax [1, 5] | EC50 [2, 6] | Emax [2, 6] |
| --- | --- | --- | --- | --- | --- | --- | --- | --- |
| Cc1ccc2c(c1)C1(CCN(C3CC4CCC3C4)CC1)CN2 (centres unmarked) [compound 350] | xxx (activity was measured to be less than 0.1 μM) | > 85% | xxx (activity was measured to be less than 0.1 μM) | > 85% |  |  |  |  |
| CCOC(=O)N1C2CCC1CC(N1CCC3(CC1)CNc1ccc(Cl)cc13)C2 (centres unmarked) [compound 351] | xxx (activity was measured to be less than 0.1 μM) | 65 to 85% | xx (activity was measured to be between 0.1 μM and 1.0 μM) | > 85% |  |  |  |  |
| CCOC(=O)N1CCC(N2CCC3(CC2)CNc2ccccc23)CC1 [compound 352] | xxx (activity was measured to be less than 0.1 μM) | > 85% | x (activity was measured to be greater than 1.0 μM) | > 85% |  |  |  |  |
| CC#CCOC(=O)N1CCC(N2CCC3(CC2)CN(C(=O)N(C)C)c2ccc(F)cc23)CC1 [compound 353] | xxx (activity was measured to be less than 0.1 μM) | > 85% | x (activity was measured to be greater than 1.0 μM) | 65 to 85% |  |  |  |  |
| Cc1ccc2c(c1)C1(CCN(C3CC4CCC3C4)CC1)CN2S(=O)(=O)c1ccccc1 (centres unmarked) [compound 354] | x (activity was measured to be greater than 1.0 μM) | 65 to 85% | x (activity was measured to be greater than 1.0 μM) | 65 to 85% |  |  |  |  |
| O=C(O[C@H]1CCOC1)N1C2CCC1CC(N1CCC3(CCc4ccccc43)CC1)C2 (some centres unmarked) [compound 355] | xx (activity was measured to be between 0.1 μM and 1.0 μM) | 65 to 85% | xx (activity was measured to be between 0.1 μM and 1.0 μM) | 65 to 85% |  |  |  |  |
| CN([C@H]1CC2(CCN(C[C@H]3C[C@H]4CC[C@H]3C4)CC2)c2ccccc21)S(C)(=O)=O [compound 357] | xx (activity was measured to be between 0.1 μM and 1.0 μM) | < 65% | x (activity was measured to be greater than 1.0 μM) | < 65% |  |  |  |  |
| CC(=O)N[C@H]1CC2(CCN(C3CCC[C@@H](C)C3)CC2)c2ccccc21 (some centres unmarked) [compound 358] | xxx (activity was measured to be less than 0.1 μM) | 65 to 85% | xx (activity was measured to be between 0.1 μM and 1.0 μM) | 65 to 85% |  |  |  |  |
| CCOC(=O)N1C2CCC1CC(N1CCC3(CC1)C[C@H](NC(C)=O)c1ccccc13)C2 (some centres unmarked) [compound 359] | xx (activity was measured to be between 0.1 μM and 1.0 μM) | < 65% | xx (activity was measured to be between 0.1 μM and 1.0 μM) | < 65% |  |  |  |  |
| CCCOC(=O)N1C2CCC1CC(N1CCC3(CC1)CN(C(=O)N(C)C)c1ccc(F)cc13)C2 (centres unmarked) [compound 360] | xx (activity was measured to be between 0.1 μM and 1.0 μM) | 65 to 85% | x (activity was measured to be greater than 1.0 μM) | < 65% |  |  |  |  |
| CC(C)OC(=O)N1C2CCC1CC(N1CCC3(CC1)CN(C(=O)O[C@@H]1CCOC1)c1ccc(F)cc13)C2 (some centres unmarked) [compound 361] | xx (activity was measured to be between 0.1 μM and 1.0 μM) | < 65% | x (activity was measured to be greater than 1.0 μM) | < 65% |  |  |  |  |
| CCOC(=O)N1C2CCC1CC(N1CCC3(CC1)CN(C(=O)N(C)C)c1ccc(F)cc13)C2 (centres unmarked) [compound 362] | xx (activity was measured to be between 0.1 μM and 1.0 μM) | 65 to 85% | x (activity was measured to be greater than 1.0 μM) | < 65% |  |  |  |  |
| O=C(OCC1CCCO1)N1C2CCC1CC(N1CCC3(CC1)COc1ccc(F)cc13)C2 (centres unmarked) [compound 363] | xx (activity was measured to be between 0.1 μM and 1.0 μM) | < 65% | x (activity was measured to be greater than 1.0 μM) | < 65% |  |  |  |  |
| C#CCOC(=O)N1CCC(CN2CCC3(CC2)C[C@H](NC(C)=O)c2ccccc23)CC1 [compound 364] | xxx (activity was measured to be less than 0.1 μM) | > 85% | x (activity was measured to be greater than 1.0 μM) | < 65% |  |  |  |  |
| CCOC(=O)N1C2CCC1CC(N1CCC3(CCc4ccccc43)CC1)C2 (centres unmarked) [compound 365] | xxx (activity was measured to be less than 0.1 μM) | 65 to 85% | x (activity was measured to be greater than 1.0 μM) | < 65% |  |  |  |  |
| CC(=O)N1CC2(CCN(CC3CC4CCC3CC4)CC2)c2cc(F)ccc21 (centres unmarked) [compound 366] | xx (activity was measured to be between 0.1 μM and 1.0 μM) | < 65% | x (activity was measured to be greater than 1.0 μM) | < 65% |  |  |  |  |
| CCC1CCC(N2CCC3(CC2)C[C@H](NC(C)=O)c2ccccc23)CC1 (some centres unmarked) [compound 367] | x (activity was measured to be greater than 1.0 μM) | < 65% | x (activity was measured to be greater than 1.0 μM) | < 65% |  |  |  |  |
| CCOC(=O)N1C2CCC1CC(CN1CCC3(CC1)CNc1ccc(F)cc13)C2 (centres unmarked) [compound 368] | xxx (activity was measured to be less than 0.1 μM) | < 65% | xx (activity was measured to be between 0.1 μM and 1.0 μM) | < 65% |  |  |  |  |
| Clc1ccc2c(c1)C1(CCO2)CCN([C@@H]2C[C@@H]3CC[C@H]2C3)CC1 [compound 369] | xxx (activity was measured to be less than 0.1 μM) | > 85% | xx (activity was measured to be between 0.1 μM and 1.0 μM) | > 85% |  |  |  |  |
| CCOC(=O)N1CCC(N2CCC3(CC2)CN(C(=O)OCCF)c2ccc(F)cc23)CC1 [compound 370] | xxx (activity was measured to be less than 0.1 μM) | 65 to 85% | xx (activity was measured to be between 0.1 μM and 1.0 μM) | > 85% |  |  |  |  |
| CCOC(=O)N1C2CCC1CC(N1CCC3(CC1)CN(C(C)=O)c1ccc(F)cc13)C2 (centres unmarked) [compound 371] | xxx (activity was measured to be less than 0.1 μM) | 65 to 85% | x (activity was measured to be greater than 1.0 μM) | > 85% |  |  |  |  |
| Cc1ccc2c(c1)C1(CCN(CC3CC4CCC3O4)CC1)CN2 (centres unmarked) [compound 372] | xxx (activity was measured to be less than 0.1 μM) | 65 to 85% | xx (activity was measured to be between 0.1 μM and 1.0 μM) | > 85% |  |  |  |  |
| CCOC(=O)N1CCC(N2CCC3(CC2)CN(C(C)=O)c2ccc(-c4cccc(C#N)c4)cc23)CC1 [compound 373] | xxx (activity was measured to be less than 0.1 μM) | 65 to 85% | xx (activity was measured to be between 0.1 μM and 1.0 μM) | > 85% |  |  |  |  |
| COC(=O)N1CCC(N2CCC3(CC2)CN(C(C)=O)c2ccc(F)cc23)CC1 [compound 374] | xx (activity was measured to be between 0.1 μM and 1.0 μM) | 65 to 85% | x (activity was measured to be greater than 1.0 μM) | 65 to 85% |  |  |  |  |
| c1ccc2c(c1)NCC21CCN(C2CCCCC2)CC1 [compound 375] |  |  |  |  | < 100 nM | > 85% | < 100 nM | 65 to 85% |
| Fc1ccc2c(c1)C1(CCN(C[C@H]3C[C@H]4C=C[C@H]3C4)CC1)CO2 [compound 376] |  |  |  |  | < 100 nM | 65 to 85% | > 1000 nM | 65 to 85% |
| Fc1ccc2c(c1)C1(CCN(C3CC4CCC(C4)C3)CC1)CN2 (centres unmarked) [compound 377] |  |  |  |  | < 100 nM | 65 to 85% | 100 to 1000 nM | 65 to 85% |
| COCCOC(=O)N1C2CCC1CC(N1CCC3(CC1)COc1ccc(F)cc13)C2 (centres unmarked) [compound 378] |  |  |  |  | 100 to 1000 nM | 65 to 85% | > 1000 nM | 65 to 85% |
| O=C(C1CC1)N1CC2(CCN(C3CC4CCC(C3)N4C(=O)OC3CCC3)CC2)c2cc(F)ccc21 (centres unmarked) [compound 379] |  |  |  |  | < 100 nM | 65 to 85% | 100 to 1000 nM | 65 to 85% |
